Values quoted from earlier work, collected in US11110113B2, “Compositions and methods for treating depression” (Gentelon, Inc., priority 2016, dated 2021).

How the values were obtained:
[1] = test system: Major Depressive Disorder; conditions: trial versus placebo
cerebral tissue = conditions: six months, versus placebo; schizophrenia and Huntington's disease
[2] = test system: Major Depressive Disorder; conditions: double-blind studies; intravenous or intramuscular (parenteral)
[3] = oral SAMe

In the case of `CC/C=C\C/C=C\C/C=C\C/C=C\C/C=C\C/C=C\CCC(=O)O` [DHA, all-cis-4,7,10,13,16,19-docosahexaenoic acid], the “efficacy in major depressive disorder / mood-disordered population” value [1] is given as “negative result”.

In the case of `CC/C=C\C/C=C\C/C=C\C/C=C\C/C=C\CCCC(=O)OCC` [E-EPA], the “grey and white matter” value (cerebral tissue) is given as “significant increase” and the “efficacy in major depressive disorder / mood-disordered population” value [1] is given as “advantage over placebo”.

For `C[S+](CC[C@H](N)C(=O)[O-])C[C@H]1O[C@@H](n2cnc3c(N)ncnc32)[C@H](O)[C@@H]1O` (stereo partly shown) [SAMe, S-Adenosyl methionine], the “efficacy in treatment of Major Depressive Disorder” value [2] is listed as “effective” and the half-life [3] is listed as “about 100 minutes”.

In the case of `Nc1nc2ncc(CNc3ccc(C(=O)N[C@@H](CCC(=O)O)C(=O)O)cc3)nc2c(=O)[nH]1` [folic acid], the depression symptomatology (depression; longer term supplementation, patients with unipolar and bipolar depression) is given as “statistically significant improvements”.

In the case of `Nc1nc2c(c(=O)[nH]1)N(C=O)C(CNc1ccc(C(=O)N[C@@H](CCC(=O)O)C(=O)O)cc1)CN2` (stereo partly shown) [folinic acid], the depression scores (depression; patients inadequately responsive to monotherapy with a serotonin reuptake inhibitor) is listed as “significant reduction”.
